Assay [1] deals with Proto-oncogene tyrosine-protein kinase Src (Homo sapiens, UniProt P12931). The assay can be described thus: Selectivity interaction (Kinase panel (Z-LYTE Assay)) EUB0001632a SRC. The following applies: at 10 µM.
Assay [2] has as its target Cannabinoid receptor 2 (Homo sapiens) (UniProt P34972). The assay can be described thus: Selectivity interaction (Eurofins CEREP Diversity Profile (receptors and ion channels)) EUB0000279b CNR2. To be noted: at 10 µM.
Assay [3] addresses T1, Serine/threonine-protein kinase DCLK2 (Homo sapiens) (UniProt Q8N568).
T1 sequence (whole entry): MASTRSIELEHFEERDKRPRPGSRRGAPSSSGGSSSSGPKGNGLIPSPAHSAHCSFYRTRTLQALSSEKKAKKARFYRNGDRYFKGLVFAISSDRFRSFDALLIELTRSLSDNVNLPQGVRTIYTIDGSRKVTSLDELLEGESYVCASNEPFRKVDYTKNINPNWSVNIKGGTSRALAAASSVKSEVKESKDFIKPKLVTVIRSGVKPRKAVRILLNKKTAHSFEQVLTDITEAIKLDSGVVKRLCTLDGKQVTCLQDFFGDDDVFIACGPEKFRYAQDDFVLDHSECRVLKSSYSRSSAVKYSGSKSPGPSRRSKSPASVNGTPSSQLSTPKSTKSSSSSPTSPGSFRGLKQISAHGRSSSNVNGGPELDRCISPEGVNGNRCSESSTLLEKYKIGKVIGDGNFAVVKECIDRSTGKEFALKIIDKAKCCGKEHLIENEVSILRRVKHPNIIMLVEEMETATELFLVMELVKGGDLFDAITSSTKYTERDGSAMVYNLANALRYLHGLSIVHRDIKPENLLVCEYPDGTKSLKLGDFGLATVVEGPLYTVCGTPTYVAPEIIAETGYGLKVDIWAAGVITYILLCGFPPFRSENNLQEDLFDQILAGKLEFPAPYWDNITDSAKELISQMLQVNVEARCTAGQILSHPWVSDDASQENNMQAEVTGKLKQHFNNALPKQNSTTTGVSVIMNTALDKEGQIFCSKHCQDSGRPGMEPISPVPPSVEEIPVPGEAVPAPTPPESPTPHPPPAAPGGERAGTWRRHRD
The assay can be described thus: Selectivity interaction (Kinase panel (Invitrogen)) EUB0000639a DCLK2. To be noted: at 200 nM.

Assay [4] concerns the target T2, Interleukin-1 receptor-associated kinase 3 (Homo sapiens) (UniProt Q9Y616).
T2 sequence (whole entry): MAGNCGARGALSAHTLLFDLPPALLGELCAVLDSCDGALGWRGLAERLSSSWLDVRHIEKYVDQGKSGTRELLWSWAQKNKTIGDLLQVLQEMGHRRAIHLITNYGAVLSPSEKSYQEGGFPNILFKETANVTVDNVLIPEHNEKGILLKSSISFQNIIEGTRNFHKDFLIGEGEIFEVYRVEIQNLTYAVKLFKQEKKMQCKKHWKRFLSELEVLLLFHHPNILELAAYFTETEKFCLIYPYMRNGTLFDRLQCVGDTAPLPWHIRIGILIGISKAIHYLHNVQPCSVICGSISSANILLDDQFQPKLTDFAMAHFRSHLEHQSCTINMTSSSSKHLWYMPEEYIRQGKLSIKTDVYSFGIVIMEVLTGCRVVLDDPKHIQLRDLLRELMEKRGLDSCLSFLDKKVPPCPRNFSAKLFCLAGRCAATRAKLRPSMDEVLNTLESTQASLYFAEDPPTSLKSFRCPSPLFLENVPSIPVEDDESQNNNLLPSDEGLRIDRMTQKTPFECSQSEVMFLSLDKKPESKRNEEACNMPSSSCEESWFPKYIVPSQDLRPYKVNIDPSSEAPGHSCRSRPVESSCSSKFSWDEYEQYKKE
Briefly: Selectivity interaction (KinomeScan (DiscoverX)) EUB0000045b IRAK3.

Assay [5] concerns the target Serine/threonine-protein kinase mTOR (Homo sapiens, UniProt P42345). Briefly: Selectivity interaction (KinomeScan (DiscoverX)) EUB0000045b MTOR.
The target in assay [6] is T3, Serine/threonine-protein kinase LATS2 (Homo sapiens) (UniProt Q9NRM7).
T3 sequence (whole entry): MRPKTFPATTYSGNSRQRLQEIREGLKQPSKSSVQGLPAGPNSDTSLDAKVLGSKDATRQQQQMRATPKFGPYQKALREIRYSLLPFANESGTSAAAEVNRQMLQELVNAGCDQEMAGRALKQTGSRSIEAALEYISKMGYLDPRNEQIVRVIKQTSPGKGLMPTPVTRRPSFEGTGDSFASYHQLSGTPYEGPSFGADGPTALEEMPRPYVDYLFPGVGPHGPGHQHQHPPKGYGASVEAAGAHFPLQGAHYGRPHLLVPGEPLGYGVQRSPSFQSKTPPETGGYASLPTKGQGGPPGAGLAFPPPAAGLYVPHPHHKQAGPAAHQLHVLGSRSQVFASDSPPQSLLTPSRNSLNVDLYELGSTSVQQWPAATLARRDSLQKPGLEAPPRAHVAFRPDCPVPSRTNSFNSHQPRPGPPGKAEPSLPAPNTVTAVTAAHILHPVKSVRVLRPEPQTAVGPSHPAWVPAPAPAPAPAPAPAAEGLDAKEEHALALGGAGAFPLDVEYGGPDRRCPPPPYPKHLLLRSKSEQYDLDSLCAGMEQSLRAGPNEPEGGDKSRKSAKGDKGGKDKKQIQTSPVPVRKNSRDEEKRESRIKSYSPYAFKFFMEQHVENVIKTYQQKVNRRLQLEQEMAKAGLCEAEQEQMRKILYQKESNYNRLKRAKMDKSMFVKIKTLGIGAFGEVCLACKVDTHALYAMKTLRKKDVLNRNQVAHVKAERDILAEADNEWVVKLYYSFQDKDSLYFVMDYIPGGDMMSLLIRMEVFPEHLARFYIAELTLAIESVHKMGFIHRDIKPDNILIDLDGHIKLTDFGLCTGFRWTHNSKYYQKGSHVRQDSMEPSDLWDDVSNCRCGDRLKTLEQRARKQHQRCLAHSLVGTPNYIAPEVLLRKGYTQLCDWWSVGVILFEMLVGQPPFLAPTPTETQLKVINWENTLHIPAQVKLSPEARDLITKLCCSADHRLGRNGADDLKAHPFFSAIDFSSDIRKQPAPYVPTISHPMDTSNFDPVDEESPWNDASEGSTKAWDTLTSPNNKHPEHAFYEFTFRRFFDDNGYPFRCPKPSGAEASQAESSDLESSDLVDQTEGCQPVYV
The assay can be described thus: Selectivity interaction (KinomeScan (DiscoverX)) EUB0000092b LATS2. The following applies: at 10 µM.

The target in assay [7] is Mitogen-activated protein kinase kinase kinase kinase 1 (Homo sapiens) (UniProt Q92918). Briefly: Selectivity interaction (Kinase panel (KiNativ target engagement assay in Jurkat cells)) EUB0001635a MAP4K1. To be noted: Selectivity number of off-targets 0.0, Selectivity number of targets 233.0, Source Knowledge https://www.sciencedirect.com/science/article/pii/S2451945619300674?via%3Dihub, at 1 µM. Format: cell-based.
Chain of Mitogen-activated protein kinase kinase kinase kinase 1 (Homo sapiens) (Q92918 whole entry, looked up): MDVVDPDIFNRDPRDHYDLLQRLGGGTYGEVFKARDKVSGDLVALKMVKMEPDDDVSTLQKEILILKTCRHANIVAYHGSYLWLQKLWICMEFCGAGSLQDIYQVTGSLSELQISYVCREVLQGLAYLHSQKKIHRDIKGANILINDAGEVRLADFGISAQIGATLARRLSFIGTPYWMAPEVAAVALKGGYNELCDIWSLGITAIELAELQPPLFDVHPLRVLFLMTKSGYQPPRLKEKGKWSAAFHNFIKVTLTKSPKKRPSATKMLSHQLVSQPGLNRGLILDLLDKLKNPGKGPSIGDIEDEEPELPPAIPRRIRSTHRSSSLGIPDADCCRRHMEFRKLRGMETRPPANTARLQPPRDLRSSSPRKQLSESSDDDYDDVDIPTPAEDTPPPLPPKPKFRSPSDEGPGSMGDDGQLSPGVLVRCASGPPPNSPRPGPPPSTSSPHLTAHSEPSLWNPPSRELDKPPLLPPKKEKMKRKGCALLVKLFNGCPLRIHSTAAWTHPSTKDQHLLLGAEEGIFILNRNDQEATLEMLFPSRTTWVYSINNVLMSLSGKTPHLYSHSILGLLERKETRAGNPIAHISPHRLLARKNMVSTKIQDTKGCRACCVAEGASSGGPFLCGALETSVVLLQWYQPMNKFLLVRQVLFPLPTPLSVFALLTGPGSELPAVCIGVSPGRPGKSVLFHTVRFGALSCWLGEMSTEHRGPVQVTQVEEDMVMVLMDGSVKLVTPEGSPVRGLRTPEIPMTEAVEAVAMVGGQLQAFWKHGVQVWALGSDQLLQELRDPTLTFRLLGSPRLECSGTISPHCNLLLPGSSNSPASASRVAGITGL

Chain of Proto-oncogene tyrosine-protein kinase Src (P12931 2-536 limits assumed): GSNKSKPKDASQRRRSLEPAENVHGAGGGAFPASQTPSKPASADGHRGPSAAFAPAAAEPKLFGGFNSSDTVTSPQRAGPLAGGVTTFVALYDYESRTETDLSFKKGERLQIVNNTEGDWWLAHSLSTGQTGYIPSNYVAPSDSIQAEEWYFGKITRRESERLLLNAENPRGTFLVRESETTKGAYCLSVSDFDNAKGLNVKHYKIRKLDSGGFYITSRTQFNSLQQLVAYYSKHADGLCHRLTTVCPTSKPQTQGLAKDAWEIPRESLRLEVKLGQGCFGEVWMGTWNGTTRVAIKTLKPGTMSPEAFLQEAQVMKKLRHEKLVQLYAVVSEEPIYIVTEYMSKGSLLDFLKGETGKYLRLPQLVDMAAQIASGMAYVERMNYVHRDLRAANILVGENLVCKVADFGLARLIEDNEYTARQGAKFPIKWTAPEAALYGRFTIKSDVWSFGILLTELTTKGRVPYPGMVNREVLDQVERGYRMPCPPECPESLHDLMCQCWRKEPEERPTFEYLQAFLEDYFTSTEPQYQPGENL
Chain of Cannabinoid receptor 2 (Homo sapiens) (P34972 whole entry): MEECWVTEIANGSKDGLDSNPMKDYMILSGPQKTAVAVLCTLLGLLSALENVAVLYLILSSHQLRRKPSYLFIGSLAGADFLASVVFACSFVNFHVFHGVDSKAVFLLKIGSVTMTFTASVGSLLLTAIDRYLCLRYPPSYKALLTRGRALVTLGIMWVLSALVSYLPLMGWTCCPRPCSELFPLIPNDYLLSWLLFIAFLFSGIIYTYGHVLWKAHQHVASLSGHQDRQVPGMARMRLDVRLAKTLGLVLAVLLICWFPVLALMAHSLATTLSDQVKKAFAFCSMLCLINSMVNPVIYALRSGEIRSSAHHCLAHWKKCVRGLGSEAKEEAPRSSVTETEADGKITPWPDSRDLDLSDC

In turn, `Cn1cc(-n2cnc3c(NCc4nc5cc(Cl)c(Cl)cc5[nH]4)nc(N4CCOCC4)nc32)cn1` yielded a % of control in assay [1] of 6.05%.

With `CC(=O)c1cc(-c2ccccc2OCC2CC2)c2ncccn12`, the % of control in assay [2] was found to be 107%.

As to `CC[C@@H]1[C@H](F)C(=O)N[C@@H]1COc1nccc2cc(C(N)=O)c(OC)cc12` [ZIMLOVISERTIB], in assay [3], the % of inhibition came to 24.9%.

`C=CC(=O)Nc1cc(-n2c(=O)ccc3cnc4ccc(-c5ccc(NS(C)(=O)=O)cc5)cc4c32)ccc1C`: the % of control in assay [4] (at 1 µM) worked out at 73%; in assay [4] (at 10 µM) it was 34%; in assay [5] (at 1 µM), 45%; in assay [5] (at 10 µM), 0%.

The compound `CCC(=O)N1CCN(c2ccc(-n3c(=O)ccc4cnc5ccc(-c6cnc7ccccc7c6)cc5c43)cc2C(F)(F)F)CC1` displayed a % of control in assay [6] of 100%.

`C=CC(=O)Nc1ccc(C(=O)Nc2[nH]nc3c2CN(C(=O)N[C@H](CN(C)C)c2ccccc2)C3(C)C)cc1` returned a % of engagement in assay [7] of 4.4%.

Values taken from ChEMBL document CHEMBL5465560, “Selectivity Literature for EUbOPEN Chemogenomic Library” (2024).
